Measured values published in ChEMBL document CHEMBL1201862, “PubChem BioAssay data set” (2004).
Activity calls are given as the source filed them.

How the values were obtained:
NADPH oxidase 1 [1] = molecular target: T1, NADPH oxidase 1 (Homo sapiens, UniProt Q9Y5S8); test: Late-stage luminescence-based cell-based dose response assay to identify inhibitors of NADPH oxidase 1 (NOX1): Purchased analogs 2.; assay type: functional
HEK293 = test: Fluorescence-based counterscreen for potentiators or agonists of NPY-Y2: cell-based high-throughput dose response assay to identify inhibitors of cyclic nucleotide gated ion channel (CNGC) activity. In this assay, the parental HEK293 cell line transfected with a cyclic-nucleotide gated ion channel (CNGC)-based cAMP sensor is used to measure inhibition of isoproterenol-induced CNGC activity by test compound.; assay type: functional; conditions: Homo sapiens;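 further: stimulus is 1 µM isoproterenol at EC100 plus PDE inhibitor Ro 20-1724 at 25 µM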
[2] = molecular target: Neuropeptide Y receptor type 2 (Homo sapiens, UniProt P49146); test: Fluorescence-based cell-based high-throughput dose response assay for agonists of NPY-Y2. [Related pubchem assays: 1703 (Screening assay (CNGC inhibitors).), 1359 (Screening assay (NPY-Y2 potentiators or agonists).), 1304 (Screening assay (NPY-Y1 potentiators or agonists).), 1710 (Screening assay (NPY-Y2 agonists).), 1791 (Summary AID.)]; assay type: functional
Chain of Neuropeptide Y receptor type 2 (P49146 whole entry): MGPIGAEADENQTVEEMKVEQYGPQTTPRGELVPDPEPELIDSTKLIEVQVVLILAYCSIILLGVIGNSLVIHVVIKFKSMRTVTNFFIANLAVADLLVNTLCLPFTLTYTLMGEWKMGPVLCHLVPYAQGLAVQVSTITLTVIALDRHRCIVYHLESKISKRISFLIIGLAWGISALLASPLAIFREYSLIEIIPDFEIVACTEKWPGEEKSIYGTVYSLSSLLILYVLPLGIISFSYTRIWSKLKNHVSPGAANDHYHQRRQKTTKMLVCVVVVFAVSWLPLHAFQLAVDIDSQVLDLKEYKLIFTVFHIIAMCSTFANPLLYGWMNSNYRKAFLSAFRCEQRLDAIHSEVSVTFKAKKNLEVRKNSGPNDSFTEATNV

[3] = molecular target: Neuropeptide Y receptor type 1 (Homo sapiens, UniProt P25929); test: Fluorescence-based counterscreen for agonists of NPY-Y2: cell-based high-throughput dose response assay for agonists of NPY-Y1.; assay type: functional
Chain of Neuropeptide Y receptor type 1 (P25929 whole entry): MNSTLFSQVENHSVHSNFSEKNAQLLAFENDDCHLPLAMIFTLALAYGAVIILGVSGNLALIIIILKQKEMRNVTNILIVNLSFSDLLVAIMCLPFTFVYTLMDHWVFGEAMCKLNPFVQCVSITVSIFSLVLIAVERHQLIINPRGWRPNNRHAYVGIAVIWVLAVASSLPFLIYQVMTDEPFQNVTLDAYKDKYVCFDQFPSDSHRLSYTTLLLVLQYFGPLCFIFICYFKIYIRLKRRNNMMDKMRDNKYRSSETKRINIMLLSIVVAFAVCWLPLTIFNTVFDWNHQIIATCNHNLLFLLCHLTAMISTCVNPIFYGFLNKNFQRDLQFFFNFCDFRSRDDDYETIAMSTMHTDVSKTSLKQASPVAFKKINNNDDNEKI

[4] = molecular target: Neuropeptides B/W receptor type 1 (Homo sapiens, UniProt P48145); test: Fluorescence-based dose response cell-based high throughput screening assay to identify antagonists of the G-protein coupled receptor 7 (GPR7). [Related pubchem assays: 1952 (Screening assay (GPR7 antagonists).), 1880 (Summary AID.)]; assay type: functional
Chain of Neuropeptides B/W receptor type 1 (P48145 whole entry): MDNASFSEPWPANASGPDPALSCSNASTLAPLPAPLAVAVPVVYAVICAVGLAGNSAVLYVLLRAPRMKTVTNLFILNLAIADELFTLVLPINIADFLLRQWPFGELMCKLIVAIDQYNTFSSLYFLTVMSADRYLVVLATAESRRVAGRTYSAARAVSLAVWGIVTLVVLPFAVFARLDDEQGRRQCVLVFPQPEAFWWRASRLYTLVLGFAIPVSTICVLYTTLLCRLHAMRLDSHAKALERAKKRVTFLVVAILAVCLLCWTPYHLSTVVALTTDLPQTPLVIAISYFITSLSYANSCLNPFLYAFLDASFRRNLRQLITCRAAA

[5] = molecular target: Melanin-concentrating hormone receptor 1 (Homo sapiens, UniProt Q99705); test: Fluorescence-based counterscreen for antagonists of the G-protein coupled receptor 7 (GPR7): cell-based high throughput dose response assay to identify antagonists of the melanin-concentrating hormone receptor 1 (MCHR1).; assay type: functional
Chain of Melanin-concentrating hormone receptor 1 (Q99705 whole entry): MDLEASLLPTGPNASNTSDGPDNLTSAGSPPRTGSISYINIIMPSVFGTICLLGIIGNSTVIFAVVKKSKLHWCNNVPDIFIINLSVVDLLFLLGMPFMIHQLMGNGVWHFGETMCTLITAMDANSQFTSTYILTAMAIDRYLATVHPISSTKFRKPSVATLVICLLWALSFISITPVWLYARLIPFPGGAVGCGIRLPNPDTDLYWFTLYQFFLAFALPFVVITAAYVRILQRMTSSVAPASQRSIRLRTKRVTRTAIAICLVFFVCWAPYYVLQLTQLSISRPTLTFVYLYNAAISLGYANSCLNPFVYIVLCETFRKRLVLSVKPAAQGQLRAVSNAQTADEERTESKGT

[6] = molecular target: Peroxisome proliferator-activated receptor gamma/Nuclear receptor corepressor 2 (Homo sapiens, UniProt P37231+Q9Y618); test: Counterscreen for NR2E3 inverse agonists: TR-FRET-based biochemical high throughput dose response assay to identify inverse agonists of the interaction between peroxisome proliferator-activated receptor gamma (PPARg) and nuclear receptor co-repressor 2 (NCOR2).; assay type: functional
[7] = molecular target: Photoreceptor-specific nuclear receptor (Homo sapiens, UniProt Q9Y5X4); test: NR2E3 inverse agonists, dose response, biochemical, TR-FRET (AID 463256); assay type: functional
Chain of Photoreceptor-specific nuclear receptor (Q9Y5X4 whole entry): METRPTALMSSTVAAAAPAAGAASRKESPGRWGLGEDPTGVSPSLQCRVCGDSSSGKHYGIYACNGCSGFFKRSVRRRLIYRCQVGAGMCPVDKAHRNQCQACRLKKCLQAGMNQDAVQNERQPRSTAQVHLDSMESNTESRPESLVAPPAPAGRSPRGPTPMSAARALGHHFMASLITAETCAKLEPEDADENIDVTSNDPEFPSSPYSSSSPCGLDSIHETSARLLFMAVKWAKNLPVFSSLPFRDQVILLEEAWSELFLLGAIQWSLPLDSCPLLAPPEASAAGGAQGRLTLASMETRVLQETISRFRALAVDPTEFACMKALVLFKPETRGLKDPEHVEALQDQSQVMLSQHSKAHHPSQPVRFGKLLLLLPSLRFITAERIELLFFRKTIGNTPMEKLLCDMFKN

[8] = molecular target: G-protein coupled receptor 55 (Homo sapiens, UniProt Q9Y2T6); test: GPR55 agonists via beta-arrestin recruitment, primary screen, imaging, U2OS cells, beta-arrestin-GFP redistribution (AID 1961); assay type: functional
Chain of G-protein coupled receptor 55 (Q9Y2T6 whole entry, the tested form may be a part): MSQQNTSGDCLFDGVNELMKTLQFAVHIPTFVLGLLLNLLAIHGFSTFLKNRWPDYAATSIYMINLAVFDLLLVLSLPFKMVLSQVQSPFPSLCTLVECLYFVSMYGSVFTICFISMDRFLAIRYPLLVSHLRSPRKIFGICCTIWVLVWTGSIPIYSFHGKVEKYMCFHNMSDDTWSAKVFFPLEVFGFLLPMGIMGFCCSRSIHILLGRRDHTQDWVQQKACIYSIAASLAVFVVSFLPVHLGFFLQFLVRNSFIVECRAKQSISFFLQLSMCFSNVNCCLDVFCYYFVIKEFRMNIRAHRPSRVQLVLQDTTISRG

[9] = HIV-1 Env-mediated cell fusion inhibitors, dose response, CCR5-tropic Env (AID 2279); assay type: functional
[10] = molecular target: Induced myeloid leukemia cell differentiation protein Mcl-1 (Homo sapiens, UniProt Q07820); assay type: functional
Chain of Induced myeloid leukemia cell differentiation protein Mcl-1 (Q07820 whole entry): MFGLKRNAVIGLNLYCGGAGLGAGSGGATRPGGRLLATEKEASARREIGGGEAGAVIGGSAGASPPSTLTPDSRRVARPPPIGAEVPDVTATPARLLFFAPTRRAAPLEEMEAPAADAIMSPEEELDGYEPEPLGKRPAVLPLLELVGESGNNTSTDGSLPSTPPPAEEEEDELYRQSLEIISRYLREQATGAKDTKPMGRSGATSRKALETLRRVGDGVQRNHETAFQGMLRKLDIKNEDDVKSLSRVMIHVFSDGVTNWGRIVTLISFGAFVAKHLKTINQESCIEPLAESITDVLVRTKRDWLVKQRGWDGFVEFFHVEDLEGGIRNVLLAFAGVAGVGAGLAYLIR

[11] = system: Streptococcus sp. 'group A'; test: growth inhibition of control SK(-) GAS strain, dose response, counter-screen for streptokinase expression inhibitor project, luminescence, kanamycin, BacTiterGlo, confirmation (AID 1900); assay type: functional, organism-based
cells [12] = assay type: functional, cell-based
Streptokinase A = molecular target: T2, Streptokinase A (Streptococcus pyogenes serotype M1, UniProt P10520); test: S. pyogenes streptokinase expression inhibitors, potency, dose response, plasminogen activation absorbance, OD405 (AID 1914); assay type: functional, Streptococcus pyogenes M1 GAS;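 further: secreted streptokinase activity via plasminogen activation per viability signal from cell pellet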
T2 sequence (P10520 whole entry): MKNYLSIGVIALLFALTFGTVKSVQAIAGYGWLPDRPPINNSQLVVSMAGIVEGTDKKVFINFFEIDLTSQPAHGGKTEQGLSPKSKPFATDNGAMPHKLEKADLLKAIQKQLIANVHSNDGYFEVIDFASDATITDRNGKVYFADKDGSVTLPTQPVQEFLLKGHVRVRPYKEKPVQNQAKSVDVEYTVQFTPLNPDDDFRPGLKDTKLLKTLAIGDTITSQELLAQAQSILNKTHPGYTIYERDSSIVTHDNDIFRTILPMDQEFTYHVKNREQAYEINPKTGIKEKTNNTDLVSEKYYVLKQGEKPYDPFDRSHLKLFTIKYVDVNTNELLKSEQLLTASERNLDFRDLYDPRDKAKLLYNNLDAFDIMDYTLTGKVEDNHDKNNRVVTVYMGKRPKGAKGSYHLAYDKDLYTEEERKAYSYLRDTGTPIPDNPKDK

[13] = Luminescence-based counterscreen assay for KLF5 inhibitors: dose response cell-based high throughput screening assay to identify cytotoxic compounds using the IEC-6 intestinal epithelial cell line. [Related pubchem assays: 1700 (Primary screen.), 1834 (Confirmation screen.), 1858 (Summary AID.), 1905 (Counterscreen.)]; assay type: functional
cells [14] = assay type: functional, cell-based; remark: listed apart in the source
Streptococcus = test: Group A Streptococcus viability loss, dose response, counter-screen for streptokinase expression inhibitor project, luminescence, BacTiterGlo (AID 1915); assay type: functional, organism-based;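 further: potency for reduction of bacterial viability or growth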
[15] = THP-1 cell cytotoxicity, dose response, cytotoxicity control for non-replicating M. tuberculosis project (AID 489025); assay type: functional
[16] = HepG2 cell cytotoxicity, dose response, cytotoxicity control for non-replicating M. tuberculosis project (AID 489018); assay type: functional; conditions: Mycobacterium tuberculosis
[17] = Vero E6 cell cytotoxicity, dose response, cytotoxicity control for non-replicating M. tuberculosis project, secondary assay (AID 492998); assay type: functional, VeroE6; conditions: Vero C1008
cells [18] = assay type: functional
INS1 = test: beta cell apoptosis inhibitors, cytokine rescue, dose response, luminescence, retest (AID 449756); assay type: functional, cell-based; conditions: Rattus norvegicus;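 further: cell death triggered by IL-1 beta plus TNF-alpha plus IFN-gamma mixture; protective hits raise ATP signal compared with cytokine alone wells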
[19] = M. tuberculosis growth inhibition, HTS (AID 449762); assay type: functional
[20] = microbe, parasite or virus in culture; assay type: functional; conditions: Mycobacterium tuberculosis
Estrogen receptor beta [21] = molecular target: T3, Estrogen receptor beta (Homo sapiens, UniProt Q92731);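 further: recombinant ER-beta bound to coactivator SRC1 peptide in presence of estradiol agonist; inhibitors block coactivator peptide binding and lower the FRET signal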
T3 sequence (Q92731 whole entry): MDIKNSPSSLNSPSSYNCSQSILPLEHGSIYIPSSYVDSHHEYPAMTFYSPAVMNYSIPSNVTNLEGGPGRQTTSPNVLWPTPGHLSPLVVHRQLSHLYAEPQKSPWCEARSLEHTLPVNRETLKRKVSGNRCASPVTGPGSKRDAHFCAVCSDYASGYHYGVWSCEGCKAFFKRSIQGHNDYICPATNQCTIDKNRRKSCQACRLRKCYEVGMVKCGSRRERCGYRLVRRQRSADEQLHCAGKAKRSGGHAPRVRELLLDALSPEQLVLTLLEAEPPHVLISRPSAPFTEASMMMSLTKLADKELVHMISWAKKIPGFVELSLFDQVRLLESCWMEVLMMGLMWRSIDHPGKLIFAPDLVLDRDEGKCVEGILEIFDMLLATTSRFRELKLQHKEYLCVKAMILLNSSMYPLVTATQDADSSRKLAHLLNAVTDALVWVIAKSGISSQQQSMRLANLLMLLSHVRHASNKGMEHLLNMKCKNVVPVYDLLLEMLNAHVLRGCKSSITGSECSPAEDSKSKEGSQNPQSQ

Estrogen receptor beta [22] = molecular target: T3, Estrogen receptor beta; test: ERβ–SRC-3 coactivator interaction inhibitors, confirmation, orthogonal assay, biochemical, ELISA, streptavidin-HRP readout (AID 1060)
Estrogen receptor = Estrogen receptor (Homo sapiens, UniProt P03372);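 further: potency for inhibiting coactivator peptide recruitment to the receptor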
Chain of Estrogen receptor (P03372 whole entry): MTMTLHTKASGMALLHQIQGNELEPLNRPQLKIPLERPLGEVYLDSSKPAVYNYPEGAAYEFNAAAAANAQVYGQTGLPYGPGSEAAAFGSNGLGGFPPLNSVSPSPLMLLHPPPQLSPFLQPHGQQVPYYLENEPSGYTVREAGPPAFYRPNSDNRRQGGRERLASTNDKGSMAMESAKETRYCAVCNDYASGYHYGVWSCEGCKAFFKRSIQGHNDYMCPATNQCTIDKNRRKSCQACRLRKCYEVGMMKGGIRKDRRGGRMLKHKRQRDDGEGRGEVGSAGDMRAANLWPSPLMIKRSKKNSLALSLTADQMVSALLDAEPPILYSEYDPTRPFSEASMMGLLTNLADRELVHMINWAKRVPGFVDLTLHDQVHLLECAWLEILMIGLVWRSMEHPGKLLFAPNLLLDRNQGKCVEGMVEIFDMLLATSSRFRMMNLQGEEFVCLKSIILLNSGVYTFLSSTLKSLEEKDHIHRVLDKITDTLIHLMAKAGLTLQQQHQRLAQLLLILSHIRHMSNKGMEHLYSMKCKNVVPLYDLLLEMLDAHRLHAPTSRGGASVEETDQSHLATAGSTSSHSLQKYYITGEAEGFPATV

NADPH oxidase 1 [23] = molecular target: T1, NADPH oxidase 1; assay type: functional, cell-based
[24] = molecular target: Bifunctional protein GlmU (Mycobacterium tuberculosis, UniProt P9WMN3); test: Inhibitors of Mycobacterial Glucosamine-1-phosphate acetyl transferase (GlmU). Secondary screen.; parameters: species or system Mycobacterium tuberculosis H37Rv
Chain of Bifunctional protein GlmU (P9WMN3 whole entry): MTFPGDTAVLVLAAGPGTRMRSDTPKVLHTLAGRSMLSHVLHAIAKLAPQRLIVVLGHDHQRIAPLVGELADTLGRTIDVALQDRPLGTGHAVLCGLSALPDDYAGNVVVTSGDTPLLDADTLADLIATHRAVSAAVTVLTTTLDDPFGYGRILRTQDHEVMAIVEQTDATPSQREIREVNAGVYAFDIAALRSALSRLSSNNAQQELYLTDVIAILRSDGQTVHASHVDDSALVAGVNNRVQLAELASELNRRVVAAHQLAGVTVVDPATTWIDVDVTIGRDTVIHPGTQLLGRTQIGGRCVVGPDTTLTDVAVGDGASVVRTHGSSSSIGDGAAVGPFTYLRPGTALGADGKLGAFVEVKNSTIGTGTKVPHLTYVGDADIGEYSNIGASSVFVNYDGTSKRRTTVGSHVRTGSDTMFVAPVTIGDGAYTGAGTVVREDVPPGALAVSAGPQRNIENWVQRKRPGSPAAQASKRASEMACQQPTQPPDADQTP

T1 sequence (Q9Y5S8 whole entry): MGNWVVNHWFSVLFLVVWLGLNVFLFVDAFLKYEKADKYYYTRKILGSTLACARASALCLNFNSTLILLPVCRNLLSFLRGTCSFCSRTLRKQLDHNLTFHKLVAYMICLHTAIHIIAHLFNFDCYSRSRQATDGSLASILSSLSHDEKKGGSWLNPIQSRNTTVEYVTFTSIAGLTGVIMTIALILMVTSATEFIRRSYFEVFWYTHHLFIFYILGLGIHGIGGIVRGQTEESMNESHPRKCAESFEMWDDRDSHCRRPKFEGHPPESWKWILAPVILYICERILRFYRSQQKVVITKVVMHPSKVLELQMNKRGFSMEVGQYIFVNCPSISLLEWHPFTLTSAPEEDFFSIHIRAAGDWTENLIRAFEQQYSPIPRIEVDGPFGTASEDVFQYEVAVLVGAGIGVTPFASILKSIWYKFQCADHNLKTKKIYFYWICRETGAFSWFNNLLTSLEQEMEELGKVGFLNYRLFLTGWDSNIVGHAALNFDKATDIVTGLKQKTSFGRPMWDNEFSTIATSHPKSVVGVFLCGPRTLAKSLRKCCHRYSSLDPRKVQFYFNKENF

For `O=C(Oc1ccccc1)c1cc2cc([N+](=O)[O-])ccc2s1`, the IC50 (NADPH oxidase 1 [1]) was > 17 µM (not active).
With `c1ccc(CSc2nc3c[nH]cnc-3n2)cc1` the EC50 (HEK293) was > 35.4 µM (not active), the EC50 [2] was > 35.4 µM (not active) and the EC50 [3] was > 35.4 µM (not active).
In the case of `CCOC(=O)N1CCN(S(=O)(=O)c2ccc(C(=O)N(CCCN(C)C)c3nc4ccc(CC)cc4s3)cc2)CC1`, the IC50 [4] is reported as 14.2 µM (not active) and the IC50 [5] is reported as 18.3 µM (not active).
For `COc1cccc2sc(NC(=O)c3ccc(Br)s3)nc12`, the IC50 [6] was 2.95 µM (active), the IC50 [7] was 3.41 µM (active) and the EC50 [8] was > 32 µM (inactive).
For `COc1cc(/C=C2\SC(=O)N(Cc3ccc(F)cc3)C2=O)cc([N+](=O)[O-])c1O`, the IC50 [9] was 45.6 µM (active) and the IC50 [10] was 7.65 µM (active).
In the case of `CCOc1cccc(/C=N/NC(=O)c2ccc3c(c2)OCCO3)c1O`, the EC50 [11] is reported as 1.49 µM (active), the EC50 (cells [12]) is reported as 50.3 µM (active) and the EC50 (Streptokinase A) is reported as 1.11 µM (active). For the same compound, the IC50 [13] was 12.5 µM (not active), the EC50 (cells [14]) was > 350 µM (not active) and the EC50 (Streptococcus) was 2.77 µM (active). The CC50 [15] was 3.18 µM (active), the CC50 [16] was 4.3 µM (active) and the CC50 [17] was 6.58 µM (active). The IC50 (cells [18]) was > 50 µM (active) and the AC50 (INS1) was 3.01 µM (active).
For `COc1ccccc1/C=N/NC(=O)NC12CC3CC(CC(C3)C1)C2`, the IC50 [19] was > 100 µM (active) and the CC50 [20] was > 40 µM (active).
In the case of `Cc1ccccc1-n1c(SC/C(O)=C(\C#N)c2nc3ccccc3[nH]2)nnc1-c1ccncc1`, the IC50 (Estrogen receptor beta [21]) is reported as > 50 µM (not active) and the IC50 (Estrogen receptor beta [22]) is reported as 0.371 µM (not active).
For `CCCCOC(=O)c1cc(-c2ccc(/C=N/n3cnnc3)o2)ccc1Cl`, the IC50 (Estrogen receptor) was > 50 µM (not active).
In the case of `O=C(Nc1ccccc1)Nc1nc(-c2ccccc2)cs1`, the IC50 (NADPH oxidase 1 [23]) is reported as > 17 µM (not active).
For `O=C1OCC2OC(O)C(O)C(O)C2OC(=O)c2cc(O)c(O)c(O)c2-c2c(O)c(O)c3oc(=O)c4c(c(O)c(O)c5oc(=O)c2c3c54)-c2c1cc(O)c(O)c2O` (stereo not given), the IC50 [24] was < 1 µM (active) and the IC50 [10] was 1.56 µM (active).
